In data set [1] the test system is Leberegel (Fasciola hepatica). Nature of the data set: Chemotherapeutic test in sheep infected with liver fluke (egg count reduction / worm burden). Type of data set: in vivo. Conditions: Tabelle 1, Wirtstier: Schaf, p.o.; for minimal effective dose: Fasciola hepatica, po, minimum curative dose, read-out: Dosis (>90% Reduktion der Wurmbürde); for Chemotherapeut. Index: quotient of Dosis tolerata maxima and Dosis curativa minima. An excerpt:
(§1) Zur Feststellung der anthelminthischen Wirkung der Verbindungen der Formel I wurden chemotherapeutische Untersuchungen an ca. 25-30 kg schweren Schaflämmern ausgeführt, die entweder mit Metazerkarien von Fasciola hepatica oder mit Larven von Magen-Darm-Strongyliden, vornehmlich Haemonchus contortus und Trichostongylus colubriformis, oral infiziert worden waren. Nach Ablauf der Präpatenzperiode (Zeit zwischen Infektion und Geschlechtsreife der Parasiten mit beginnender Ausscheidung von Eiern oder Larven) wurde der Parasitenbefall durch Kotuntersuchungen gesichert. […] Unmittelbar danach wurde die Behandlung der Schafe (im allgemeinen 3 - 4 Tiere pro Wirkstoff, mindestens aber 2) vorgenommen. Den Tieren wurde oral oder parenteral eine Suspension von unterschiedlicher Wirkstoffmenge in jeweils 10 ml einer 1%igen Carboxymethylcellulose-Suspension appliziert. Jeweils am 7., 14. und 28. Tag nach der Behandlung wurde wiederum nach den vorstehend angegebenen Verfahren die Eizahl pro Gramm Kot ermittelt und ihre prozentuale Abnahme im Vergleich zum Ausgangswert vor der Behandlung errechnet. Mit einigen Verbindungen wurden außerdem beim Fasciola-Befall noch eine zusätzliche Prüftechnik angewandt: Nach Abschluß der Präpatenzperiode wurde bei Fasciola-positiven Schafen ein künstlicher Gallengang geschaffen, der am Ausgang der Gallenblase ein Sieb enthielt, so daß die nach der Behandlung abgetöteten Leberegel in der Gallenblase aufgefangen werden konnten. Vier bis sieben Tage nach der Behandlung wurden die so operierten und dann behandelten Schafe getötet, die abgetöteten Leberegel in der Gallenblase sowie noch eventuell in der Leber vorhandene lebende Leberegel gezählt und von der gesamten Wurmbürde der Prozentsatz der abgetöteten Parasiten berechnet.
(§2) Der chemotherapeutische Index gibt den Quotienten aus Do- sis tolerata maxima und Dosis curativa minima an.

In data set [2] the test system is Magen-Darm-Würmer(Ostertagia, Haemonchur, Trichostrongylus, Cooperia, jeweils verschiedene Spezies). Kind of data set: Chemotherapeutic test in sheep infected with gastrointestinal worms (egg count reduction / worm burden). Type of data set: in vivo. Conditions: Tabelle 2, Wirtstier: Schaf; for Chemotherapeut. Index: quotient of Dosis tolerata maxima and Dosis curativa minima; for minimal effective dose: Trichostrongylus, read-out: Dosis (>90% Reduktion der Wurmbürde).
Excerpt: as §1, §2

Each structure is given as a SMILES string. Read-outs that look alike come from different tables or passages of the source.

Take `O=[N+]([O-])c1cc(Cl)cc(-c2cc(Cl)cc([N+](=O)[O-])c2O)c1O` [Niclofolan, 5,5'-Dichlor-2-2'-dihydroxy-3,3'-dinitro-biphenyl, reference compound]: in data set [1], the minimal effective dose was found to be 3 mg/kg and the “Chemotherapeut. Index” value turned out to be 3. In addition, the “Dosis (>90% Reduktion der Wurmbürde)” value in data set [2] (result in words, route not printed (oral bzw. subkutan)) is on record as “keine Wirkung”.
For `O=C(Nc1ccc(Oc2ccc(Cl)cc2)c(Cl)c1)c1cc(I)cc(I)c1O` [Rafoxanide, 3'-Chlor-4'-(p-chlor-phenoxy)-3,5-dijod-salicylanilid, reference compound], the minimal effective dose in data set [1] was found to be 7.5 mg/kg; in data set [2] (po, p.o.), 7.5 mg/kg. The “Chemotherapeut. Index” value in data set [1] and in data set [2] (p.o.) was 6 throughout.
For the compound `O=C(Nc1ccc(Cl)cc1)c1cc(Cl)cc(Cl)c1NS(=O)(=O)c1ccc(Cl)cc1` [Verbindung 13, 3,5-Dichlor-2-[(4-chlor-phenylsulfonyl)-amino]-benzoesäure-(4-chlor-anilid)], the minimal effective dose worked out at 5 mg/kg in data set [1] and 10 mg/kg in data set [2] (po, p.o.). The “Chemotherapeut. Index” value in data set [1] is 10; in data set [2] (p.o.), 5.
On to `O=C(Nc1ccc(Cl)cc1)c1cc(Cl)ccc1NS(=O)(=O)c1ccc(Br)cc1` [Verbindung 20, 5-Chlor-2-[(4-brom-phenylsulfonyl)-amino]-benzoesäure-(4-chlor-anilid)], for which the minimal effective dose in data set [1] came to 2.5 mg/kg; in data set [2] (po, p.o.), 10 mg/kg. The “Chemotherapeut. Index” value in data set [1] came to 20; in data set [2] (p.o.) it was 5.
As for `O=C(Nc1ccc(Br)cc1)c1cc(Cl)ccc1NS(=O)(=O)c1ccc(Br)cc1` [Verbindung 21], the “Chemotherapeut. Index” value in data set [2] (s.c.) is given as “über 6”. Besides, the minimal effective dose in data set [2] (sc, s.c.) turned out to be 5 mg/kg.
Regarding `O=C(Nc1ccc(Cl)cc1)c1cc(Cl)ccc1NS(=O)(=O)c1ccc(F)cc1` [Verbindung 22, 5-Chlor-2-[(4-fluor-phenylsulfonyl)-amino]-benzoesäure-(4-chloranilid)], the “Chemotherapeut. Index” value in data set [2] (p.o.) is on record as 5. The minimal effective dose in data set [2] (po, p.o.) amounted to 10 mg/kg.
As to `CCCCCCCCCCCCN(C)C(=O)c1cc(Cl)ccc1NS(=O)(=O)c1ccc(Cl)c(Cl)c1` [Verbindung 33, 5-Chlor-2-[(3,4-dichlor-phenylsulfonyl)-amino]-benzoesäure-(N-methyl-dodecylamid)], in data set [2] (s.c.), the “Chemotherapeut. Index” value is “über 6”. Also, in data set [2] (sc, s.c.), the minimal effective dose was 5 mg/kg.
For `O=C(Nc1ccc(OC(F)(F)F)cc1)c1cc(Cl)ccc1NS(=O)(=O)c1ccc(Cl)c(Cl)c1` [Verbindung 35, 5-Chlor-2-[(3,4-dichlorphenylsulfonyl)-amino]-benzoesäure-(4-trifluormethoxy-anilid)], the minimal effective dose in data set [1] amounted to 2.5 mg/kg; in data set [2] (po, p.o.), 10 mg/kg. The “Chemotherapeut. Index” value in data set [1] came out at 20; in data set [2] (p.o.), 5.
As to `O=C(Nc1ccc(Cl)cc1)c1cc([N+](=O)[O-])ccc1NS(=O)(=O)c1ccc(Cl)c(Cl)c1` [Verbindung 38, 2-[(3,4-Dichlor-phenylsulfönyl)-amino]-5-nitrobenzoesäure-(4-chlor-anilid)], in data set [2] (p.o.), the “Chemotherapeut. Index” value is on record as 6. In addition, the minimal effective dose in data set [2] (po, p.o.) stood at 7.5 mg/kg.
Take `CCN(C(=O)c1cc(Cl)ccc1N(C)S(=O)(=O)c1ccc(Cl)c(Cl)c1)c1ccc(Cl)cc1` [Verbindung 42]: the minimal effective dose in data set [1] was 2.5 mg/kg; in data set [2] (po, p.o.) it was 5 mg/kg. Also, the figures for the “Chemotherapeut. Index” value in data set [1] and in data set [2] (p.o.) were 20 and 10, respectively.
